Laboratory results reported in patent US20200107546A1, “METHODS AND COMPOSITIONS FOR CONTROLLING UNDESIRED VEGETATION SUCH AS INVASIVE ANNUAL GRASSES” (priority 2018, published 2020).

Assays:
[1] = test system: Bromus tectorum (cheatgrass); test: Example 2 post-emergence field application, control of Bromus tectorum; type: in vivo; details: Plateau 7 oz/A, Esplanade 200SC 7 oz/A, Raptor 6 oz/A, 0.25% NIS
Description: (§1) In the following Examples, desirable perennial grasses were treated to control the invasive annual grass Bromus tectorum (cheatgrass) either pre-emergence or post-emergence with either indaziflam, imazapic, imazamox, glyphosate, or combinations thereof. Imazapic, glyphosate, and combinations comprising either imazapic and/or glyphosate were used for purposes of comparison.
(§2) Table 3 summarizes the herbicidal efficacies (% Control), damage caused to desired perennial grasses (% Injury), and cover (% Cover) when the active ingredients of Table 1 were applied to perennial grasses of species Bromus inermis (smooth brome) and Agropyron smithii (western wheatgrass).
(§3) All treatments include 0.25% NIS.
(§4) Imazapic, indaziflam, imazamox, and a combination of indaziflam and imazamox were applied via a backpack research sprayer to perennial grasses to control Bromus tectorum post-emergence.

[2] = test system: perennial grasses Bromus inermis (smooth brome) and Agropyron smithii (western wheatgrass); test: Example 2 post-emergence field application, injury and cover of desirable perennial grasses; type: in vivo
Description: as §1, §2, §3, §4

[3] = test system: perennial grasses Hesperostipa comata (needle-and-thread), Aristida purpurea (purple three-awn) and Bouteloua gracilis (blue grama); test: Example 3 pre-emergence field application, injury and biomass of desirable perennial grasses; type: in vivo
Description: as §1
(§5) Table 3 summarizes the herbicidal efficacies (% Control) and damage caused to desired perennial grasses (% Injury) during the first year after the active ingredients of Table 1 were applied to perennial grasses of species Hesperostipa comata (needle-and-thread), Aristida purpurea (purple three-awn) and Bouteloua gracilis (blue grama). Table 4 further sets forth the biomass in kilograms per hectare (kg/ha) of Bromus tectorum and perennial grass measured in the first year after treatment.
as §3
(§6) Imazapic, indaziflam, and a combination of indaziflam and imazamox were applied via a backpack research sprayer to desirable perennial grasses to control unwanted Bromus tectorum pre-emergence.

[4] = test system: Bromus tectorum (cheatgrass); test: Example 3 pre-emergence field application, control and biomass of Bromus tectorum; type: in vivo; details: for % Control Bromus tectorum / Biomass (kg/ha) Bromus tectorum: first year after treatment, 0.25% NIS
Description: as §1, §5, §3, §6

[5] = Soil half-life of herbicides
Description: As used herein, “short-residual” denotes an herbicide having a median soil half-life of no greater than 50 days, such as less than 40 days or less than 30 days.
Imazamox is a short-residual imidazolinone herbicide having a soil half-life of about 20-30 days. Additionally, imazamethabenz methyl is a short-residual imidazolinone herbicide having a soil half-life of about 25-36 days.

[6] = Year 1 after treatment, post-emergence, Plateau 7 oz/A, Esplanade 200SC 7 oz/A, Raptor 6 oz/A, 0.25% NIS
[7] = Year 2 after treatment, post-emergence, Plateau 7 oz/A, Esplanade 200SC 7 oz/A, Raptor 6 oz/A, 0.25% NIS
[8] = pre-emergence, first year after treatment, Esplanade 200SC 3.5 oz/A, 0.25% NIS
[9] = pre-emergence, first year after treatment, Esplanade 200SC 5 oz/A, 0.25% NIS
[10] = pre-emergence, first year after treatment, Plateau 7 oz/A, Esplanade 200SC 7 oz/A, Raptor 6 oz/A, 0.25% NIS
[11] = Plateau 7 oz/A, Esplanade 200SC 7 oz/A, Raptor 6 oz/A
[12] = in vivo, 1 year after treatment

Compound	% Control Bromus tectorum ([1]; Year 1 after treatment)	% Control Bromus tectorum ([1]; Year 2 after treatment)	% Injury Perennial grasses [2, 6]	% Cover Perennial grasses [2, 7]	% Injury Perennial grasses [2, 7]	Biomass (kg/ha) Perennial grasses [3, 10]	% Control Bromus tectorum [4, 11]	Biomass (kg/ha) Bromus tectorum [4, 11]	Median soil half-life [5]	also measured
Cc1ccc2c(c1)[C@H](Nc1nc(N)nc(C(C)F)n1)[C@@H](C)C2 (mixture of isomers) [Indaziflam, N2-[(1R,2S)-2,3-dihydro-2,6-dimethyl-1H-inden-1-yl]-6-[(1RS)-1-fluoroethyl]-1,3,5-triazine-2,4-diamine]	37%	93%	0%	72%	0%	75 kg/ha	80%	32 kg/ha		% Injury Perennial grasses [3, 8]: 10%; Biomass (kg/ha) Perennial grasses [3, 8]: 54 kg/ha; % Injury Perennial grasses [3, 9]: 0%; Biomass (kg/ha) Perennial grasses [3, 9]: 63 kg/ha; % Injury Perennial grasses [3, 10]: 5%; Perennial grass biomass ([3]; pre-emergence, indaziflam alone, span over the rates 3.5, 5 and 7 oz/A): 54-75 kg/ha; % Control Bromus tectorum ([4]; Esplanade 200SC 3.5 oz/A): 72%; Biomass (kg/ha) Bromus tectorum ([4]; Esplanade 200SC 3.5 oz/A): 83 kg/ha; % Control Bromus tectorum ([4]; Esplanade 200SC 5 oz/A): 82%; Biomass (kg/ha) Bromus tectorum ([4]; Esplanade 200SC 5 oz/A): 18 kg/ha; control of invasive Bromus tectorum ([4]; indaziflam alone, span over the rates 3.5, 5 and 7 oz/A): 72-82%
COCc1cnc(C2=NC(C)(C(C)C)C(=O)N2)c(C(=O)O)c1 (racemic) [Imazamox, 2-[(RS)-4-isopropyl-4-methyl-5-oxo-2-imidazolin-2-yl]-5-methoxymethylnicotinic acid]	98%	20%	0%	63%	0%					
Cc1cnc(C2=NC(=O)C(C)(C(C)C)N2)c(C(=O)O)c1 (stereo not drawn) [Imazapic]	97%	77%		72%		91 kg/ha	90%	7 kg/ha	120 days	% Injury Perennial grasses [2, 12]: 15%; % Injury Perennial grasses ([2]; in vivo, 2 year after treatment): 1%; % Injury Perennial grasses [3, 12]: 10%
CC(C)C1(C)N=C(c2ncccc2C(=O)O)NC1=O (stereo not drawn) [Imazapyr]									83 days	
CCc1cnc(C2=NC(C)(C(C)C)C(=O)N2)c(C(=O)O)c1 (stereo not drawn) [Imazethapyr]									75 days	
